Experimental findings from US10730863B2, “Bridged bicyclic compounds as farnesoid X receptor modulators” (BRISTOL-MYERS SQUIBB COMPANY, priority 2017, dated 2020) are described below.

By EC50 is commonly meant the concentration at which the effect is half-maximal. A low value points to an effect from little substance.

FXR, sequence (Q96RI1 262-486): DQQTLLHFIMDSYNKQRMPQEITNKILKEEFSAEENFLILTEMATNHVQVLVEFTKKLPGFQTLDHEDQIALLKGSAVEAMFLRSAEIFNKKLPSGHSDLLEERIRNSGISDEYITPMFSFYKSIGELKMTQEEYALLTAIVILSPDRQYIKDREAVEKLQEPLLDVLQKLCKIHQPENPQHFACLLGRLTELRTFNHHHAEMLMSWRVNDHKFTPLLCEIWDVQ

This test has as its target FXR (Homo sapiens (Human), UniProt Q96RI1). Put plainly: FXR EC50 (FXR agonist activity reported with each example). The format is cell-based.
`CS(=O)(=O)NC(=O)c1cc(C(F)(F)F)c2cc(OCC34CCC(OCc5c(-c6c(Cl)cncc6Cl)noc5C5CC5)(CC3)CC4)ccc2n1` [Example 286] showed an EC50 of 19 nM.

In turn, `O=C(O)c1cc2ccc(OCC34CCC(OCc5c(-c6c(Cl)cncc6Cl)noc5C5CC5)(CC3)CC4)cc2cn1` [Example 287] returned a concentration for a half-maximal effect (EC50) of 96 nM.

`O=C(O)c1cc(C(F)(F)F)c2cc(OCC34CCC(OCc5c(-c6ccccc6C(F)(F)F)noc5C5CC5)(CC3)CC4)ccc2n1` [Example 288] came in with an EC50 of 250 nM.

The compound `COc1cc(C(=O)O)nc2ccc(OCC34CCC(OCc5c(-c6ccccc6C(F)(F)F)noc5C5CC5)(CC3)CC4)cc12` [Example 289] gave a half-maximal effective concentration (EC50) of 150 nM.

Take `O=C(O)c1cc(OCC23CCC(OCc4c(-c5ccccc5C(F)(F)F)noc4C4CC4)(CC2)CC3)ccc1F` [Example 290]: the concentration giving a half-maximal response (EC50) turned out to be 260 nM.

On to `NC(=O)c1cc(C(F)(F)F)c2cc(OCC34CCC(OCc5c(-c6c(Cl)cncc6Cl)noc5C5CC5)(CC3)CC4)ccc2n1` [Example 291, 6-((4-((5-cyclopropyl-3-(3,5-dichloropyridin-4-yl)isoxazol-4-yl)methoxy)bicyclo[2.2.2]octan-1-yl)methoxy)-4-(trifluoromethyl)quinoline-2-carboxamide], for which the half-maximal effective concentration (EC50) amounted to 230 nM.

The compound `O=C(O)c1ncc(OCC23CCC(OCc4c(-c5c(Cl)cncc5Cl)noc4C4CC4)(CC2)CC3)c2ccccc12` [Example 292, 4-((4-((5-cyclopropyl-3-(3,5-dichloropyridin-4-yl)isoxazol-4-yl)methoxy)bicyclo[2.2.2]octan-1-yl)methoxy)isoquinoline-1-carboxylic acid] had an EC50 of 9 nM.

In the case of `COCc1cc(OCC23CCC(OCc4c(-c5c(Cl)cncc5Cl)noc4C4CC4)(CC2)CC3)cnc1C(=O)O` [Example 293, 5-((4-((5-cyclopropyl-3-(3,5-dichloropyridin-4-yl)isoxazol-4-yl)methoxy)bicyclo[2.2.2]octan-1-yl)methoxy)-3-(methoxymethyl)picolinic acid], the 50% effective concentration (EC50) was 16 nM.

As for `CCOc1cc(OCC23CCC(OCc4c(-c5c(Cl)cncc5Cl)noc4C4CC4)(CC2)CC3)cnc1C(=O)O` [Example 294, 5-((4-((5-cyclopropyl-3-(3,5-dichloropyridin-4-yl)isoxazol-4-yl)methoxy)bicyclo[2.2.2]octan-1-yl)methoxy)-3-ethoxypicolinic acid], the EC50 came to 32 nM.

For the compound `CCOc1cc(OCC23CCC(OCc4c(-c5c(Cl)cncc5Cl)noc4C4CC4)(CC2)CC3)cnc1C(N)=O` [Example 295], the half-maximal effective concentration (EC50) worked out at 230 nM.

On to `O=C(O)c1ncc(OCC23CCC(OCc4c(-c5ccccc5C(F)(F)F)noc4C4CC4)(CC2)CC3)c2ccccc12` [Example 296], for which a half-maximal response (EC50) required 62 nM.

In turn, `CCOc1cc(OCC23CCC(OCc4c(-c5ccccc5C(F)(F)F)noc4C4CC4)(CC2)CC3)cnc1C(=O)O` [Example 297] yielded a 50% effective concentration (EC50) of 543 nM.

With `O=C(O)c1ccc2nc(OCC34CCC(OCc5c(-c6c(Cl)cncc6Cl)noc5C5CC5)(CC3)CC4)ccc2n1` [Example 298, 6-((4-((5-cyclopropyl-3-(3,5-dichloropyridin-4-yl)isoxazol-4-yl)methoxy)bicyclo[2.2.2]octan-1-yl)methoxy)-1,5-naphthyridine-2-carboxylic acid], the EC50 came to 63 nM.

`CCOc1cc(OCC23CCC(OCc4c(-c5ccccc5C(F)(F)F)noc4C4CC4)(CC2)CC3)cnc1C(N)=O` [Example 299] yielded an EC50 of 2300 nM.

For the compound `O=C(O)c1ncc(OCC23CCC(OCc4c(-c5c(Cl)cncc5Cl)noc4C4CC4)(CC2)CC3)cc1OCC(F)(F)F` [Example 300, 5-((4-((5-cyclopropyl-3-(3,5-dichloropyridin-4-yl)isoxazol-4-yl)methoxy)bicyclo[2.2.2]octan-1-yl)methoxy)-3-(2,2,2-trifluoroethoxy)picolinic acid], the EC50 is 57 nM.

Compound `COc1cc(OCC23CCC(OCc4c(-c5c(Cl)cncc5Cl)noc4C4CC4)(CC2)CC3)ncc1C(=O)O` [Example 301, 6-((4-((5-cyclopropyl-3-(3,5-dichloropyridin-4-yl)isoxazol-4-yl)methoxy)bicyclo[2.2.2]octan-1-yl)methoxy)-4-methoxynicotinic acid] returned a concentration giving a half-maximal response (EC50) of 42 nM.

As for `O=C(O)c1ccc(OCC23CCC(OCc4c(-c5c(Cl)cncc5Cl)noc4C4CC4)(CC2)CC3)c2ncccc12` [Example 302], the half-maximal effective concentration (EC50) is 54 nM.

As to `COc1cc(C(=O)O)nc2c(F)cc(OCC34CCC(OCc5c(-c6c(Cl)cncc6Cl)noc5C5CC5)(CC3)CC4)cc12` [Example 303, 6-((4-((5-cyclopropyl-3-(3,5-dichloropyridin-4-yl)isoxazol-4-yl)methoxy)bicyclo[2.2.2]octan-1-yl)methoxy)-8-fluoro-4-methoxyquinoline-2-carboxylic acid], the 50% effective concentration (EC50) came out at 24 nM.

The compound `CC(C)Oc1cc(C(=O)O)nc2c(F)cc(OCC34CCC(OCc5c(-c6c(Cl)cncc6Cl)noc5C5CC5)(CC3)CC4)cc12` [Example 304, 6-((4-((5-cyclopropyl-3-(3,5-dichloropyridin-4-yl)isoxazol-4-yl)methoxy)bicyclo[2.2.2]octan-1-yl)methoxy)-8-fluoro-4-isopropoxyquinoline-2-carboxylic acid] gave an EC50 of 11 nM.

Compound `O=C(O)c1ccc(OCC23CCC(OCc4c(-c5ccccc5C(F)(F)F)noc4C4CC4)(CC2)CC3)c2ncccc12` [Example 305] returned an EC50 of 104 nM.

Regarding `CCOc1cc(C(=O)O)nc2c(F)cc(OCC34CCC(OCc5c(-c6c(Cl)cncc6Cl)noc5C5CC5)(CC3)CC4)cc12` [Example 306, 6-((4-((5-cyclopropyl-3-(3,5-dichloropyridin-4-yl)isoxazol-4-yl)methoxy)bicyclo[2.2.2]octan-1-yl)methoxy)-4-ethoxy-8-fluoroquinoline-2-carboxylic acid], the EC50 was 11 nM.

The compound `Cc1cc(C(=O)O)nc2c(F)cc(OCC34CCC(OCc5c(-c6c(Cl)cncc6Cl)noc5C5CC5)(CC3)CC4)cc12` [Example 307, 6-((4-((5-cyclopropyl-3-(3,5-dichloropyridin-4-yl)isoxazol-4-yl)methoxy)bicyclo[2.2.2]octan-1-yl)methoxy)-8-fluoro-4-methylquinoline-2-carboxylic acid] came in with an EC50 of 20 nM.

`O=C(O)c1cc(OC2CCC2)c2cc(OCC34CCC(OCc5c(-c6c(Cl)cncc6Cl)noc5C5CC5)(CC3)CC4)cc(F)c2n1` [Example 308, 4-cyclobutoxy-6-((4-((5-cyclopropyl-3-(3,5-dichloropyridin-4-yl)isoxazol-4-yl)methoxy)bicyclo[2.2.2]octan-1-yl)methoxy)-8-fluoroquinoline-2-carboxylic acid] had an EC50 of 12 nM.

Consider `CCCc1cc(C(=O)O)nc2c(F)cc(OCC34CCC(OCc5c(-c6c(Cl)cncc6Cl)noc5C5CC5)(CC3)CC4)cc12` [Example 309, 6-((4-((5-cyclopropyl-3-(3,5-dichloropyridin-4-yl)isoxazol-4-yl)methoxy)bicyclo[2.2.2]octan-1-yl)methoxy)-8-fluoro-4-propylquinoline-2-carboxylic acid], for which the response was half-maximal at 13 nM (EC50).

Compound `O=C(O)c1cc(C2CC2)c2cc(OCC34CCC(OCc5c(-c6c(Cl)cncc6Cl)noc5C5CC5)(CC3)CC4)cc(F)c2n1` [Example 311, 4-cyclopropyl-6-((4-((5-cyclopropyl-3-(3,5-dichloropyridin-4-yl)isoxazol-4-yl)methoxy)bicyclo[2.2.2]octan-1-yl)methoxy)-8-fluoroquinoline-2-carboxylic acid] gave an EC50 of 9 nM.
